# In the CATMoS acute toxicity set (Mansouri et al. 2021):
# Experiment: GHS categories as the set defines them, by LD50: 1 up to 5, 2 up to 50, 3 up to 300, 4 up to 2000, 5 above 2000 mg/kg
# Conditions: rat; in vivo; po
row,SMILES,GHS category
1,COC(=O)c1ccc(N2CCC(c3ccc(Cl)cc3)=N2)cc1,5
2,CNC(=O)C(=NNc1ccc(Cl)cc1)C(C)=O,5
3,CN1C(=O)C(C)(C)Oc2cc(C(=O)C=Cc3ccc(O)cc3)ccc21,5
4,COc1cccc(N(C)C(=S)Oc2ccc3c(c2)CCCC3)n1,5
5,C[C@@H]1CC(C)(C)O[C@](Cn2cncn2)(c2cc3ccccc3o2)O1,4
6,CCCCCCCC/C=C\CCCCCCCCCCCC(N)=O,5
7,c1ccc(-c2nc3ccccc3o2)cc1,5
8,CCOc1c(OC)cccc1-c1nc(=O)c2cc(C(=O)O)ccc2[nH]1,4
9,FC(F)(F)c1cccc(-n2nc(OCCN3CCCCCC3)c3cccnc32)c1,4
10,Cc1ccc(C(N)=O)c(O)c1,5
11,OCC(CBr)(CBr)CBr,5
12,O=C(O)[C@H](CO)Nc1ccc([N+](=O)[O-])cc1,5
13,O=C1C[N+]([O-])=C(c2ccccc2)c2cc(Cl)ccc2N1,5
14,NC(=O)Oc1ccccc1C(=O)Oc1ccccc1,5
15,C=C(C)C(=O)OCCC(F)(F)C(F)(F)C(F)(F)C(F)(F)C(F)(F)C(F)(F)F,5
16,C=C(C)C(CC=C(C)C)COC(=O)C=C(C)C (centres undefined),5
17,Cc1cccc2ncc(C(=O)NC3CC3)c(=O)n12,3
18,CC(C)(C)CC(C)(C)c1cc(-n2nc3ccccc3n2)c(O)c(C(C)(C)c2ccccc2)c1,5
19,CCCCC(CC)COP(=O)(Oc1ccccc1)Oc1ccccc1 (centres undefined),5
20,CCCCCCCCC(C)C(C)CCCCCCCC (centres undefined),5
21,C=CC(C)(O)CCC=C(C)CC(C)C (centres undefined),5
22,CCC1(c2ccc(O)cc2)NC(=O)NC1=O (centres undefined),5
23,CO[C@@]1(NC(=O)CSC[C@@H](N)C(=O)O)C(=O)N2C(C(=O)O)=C(CSc3nnnn3C)CS[C@@H]21,5
24,N=c1ccn2c(n1)O[C@H]1[C@H](O)[C@@H](CO)O[C@H]12,5

row,SMILES,GHS category
1,CC(C)(C)c1ccc(C(=O)CCCN2CCC(OC(c3ccccc3)c3ccccc3)CC2)cc1,5
2,O=C1c2c(Cl)c(Cl)c(Cl)c(Cl)c2C2=Nc3cccc4cccc(c34)N12,5
3,Cc1ncc(CSSCc2cnc(C)c(O)c2CN)c(CN)c1O,5
4,O=C(NNc1cccc(C(F)(F)F)c1)c1cccnc1Cl,4
5,O=C(O)C(O)C(O)C(O)C(O)C(O)CO (centres undefined),5
6,NCC(O)CCl (centres undefined),4
7,O=C1c2c(Cl)c(Cl)c(Cl)c(Cl)c2C(=O)C1c1ccc2cccc(N3C(=O)c4c(Cl)c(Cl)c(Cl)c(Cl)c4C3=O)c2n1,5
8,CCCCCC(=O)Nc1ccc(Cc2ccccn2)c([N+](=O)[O-])c1,3
9,COc1ccc(OC)c(C(O)CNC(=O)CN)c1 (centres undefined),2
10,CCOP(OCC)c1ccccc1,5
11,CCCCOC(=O)c1ccc(C(=O)OCCCC)cc1,5
12,COc1cc2c(cc1OC)[C@@H]1C[C@H](C[C@H]3CCCCN31)OC(=O)C=Cc1ccc(O)c-2c1,4
13,CCc1cc(Cc2cc(CC)cc(C(C)(C)C)c2O)c(O)c(C(C)(C)C)c1,5
14,N#C[Se]Cc1ccc(C[Se]C#N)cc1,4
15,CCCCCCCCCCCCCC(=O)O,5
16,O=C1c2ccccc2C(=O)N1CCO,5
17,CCCCCCCCCCCC(=O)OC,5
18,CCCCCCCC[N+](C)(C)[O-],5
19,CCCc1c(Cc2ccc(-c3sccc3-c3nn[nH]n3)cc2)c(=O)nc2nc[nH]n12,4
20,C1CCCCCC2=C(CCCC1)CCCO2,5
21,CCOC(=O)C(C)(C)NC(=O)c1cnc2cccc(C)n2c1=O,3
22,COc1ccc(C=CC(C)=O)cc1,5
23,CC(C#N)c1cccc(C(=O)c2ccccc2)c1 (centres undefined),4
24,Nc1ccc2oc(N)nc2c1,4

row,SMILES,GHS category
1,O=C(O)c1ccc(/N=N/c2ccc(O)c(C(=O)O)c2)cc1,5
2,COc1cc(C(=O)OCc2cccc(COC(=O)c3cc(OC)c(OC)c(OC)c3)n2)cc(OC)c1OC,5
3,O=S(=O)(O)c1ccc(/N=N/c2cc(S(=O)(=O)O)c3ccccc3c2O)c2ccccc12,5
4,O=C=Nc1cccc2c(N=C=O)cccc12,5
5,CC(=CC1C(C)=CCCC1(C)C)C(C)O (centres undefined),5
6,CCCCCCC(O)CO (centres undefined),5
7,Cc1ccc2oc(C=Cc3nc4cc(C)ccc4o3)nc2c1,5
8,CCCCCCCCCCCCCCCCOC(=O)C(CC)CCCC (centres undefined),5
9,CCOC1(c2ccco2)CCN(CCc2ccccc2)CC1C (centres undefined),2
10,CC(C)Oc1ccc2c(=O)c(-c3ccccc3)coc2c1,5
11,O=C(NCc1ncc(C(F)(F)F)cc1Cl)c1c(Cl)cccc1Cl,5
12,Nc1c(I)c(C(=O)O)c(I)c(C(=O)NCC(O)CO)c1I (centres undefined),5
13,CC(C)COP(O)(=S)OCC(C)C,5
14,COC[C@@H]1CO[C@@](Cn2ccnc2)(c2cc3cc(Cl)cc(Cl)c3o2)O1,4
15,CCCC/C=C/CC/C=C\CCCCCCOC(C)=O,5
16,c1ccc(OCC2COC(Cn3cncn3)(c3cc4ccccc4o3)O2)cc1 (centres undefined),4
17,CCCCCCC(O)CCCCCCCCCCC(=O)OCC(COC(=O)CCCCCCCCCCC(O)CCCCCC)OC(=O)CCCCCCCCCCC(O)CCCCCC (centres undefined),5
18,C[N+](C)(C)NCCC(=O)[O-],5
19,COc1ccccc1OCCNCC(O)COc1cccc2[nH]c3ccccc3c12 (centres undefined),5
20,C[C@@H](O)[C@H]1C(=O)N2C(C(=O)O)=C(SCCNC=N)C[C@H]12,5
21,CC1(C)[C@@H](O[C@H]2O[C@H](C(=O)O)[C@@H](O)[C@H](O)[C@H]2O[C@@H]2O[C@H](C(=O)O)[C@@H](O)[C@H](O)[C@H]2O)CC[C@]2(C)[C@H]3C(=O)C=C4[C@@H]5C[C@@](C)(C(=O)O)CC[C@]5(C)CC[C@@]4(C)[C@]3(C)CC[C@@H]12,5
22,CCCCCCCC/C=C\CCCCCCCC(=O)OC[C@H](O)[C@H]1OC[C@H](OC(=O)CCCCCCC/C=C\CCCCCCCC)[C@H]1OC(=O)CCCCCCC/C=C\CCCCCCCC,5
23,CCCN(CCC)c1c([N+](=O)[O-])cc(C(C)C)cc1[N+](=O)[O-],5
24,N[C@@H](Cc1c[nH]c2ccccc12)C(=O)O,5

row,SMILES,GHS category
1,C[Si](C)(C)O[Si](C)(C)C,5
2,CC/C=C\CCOC(=O)C(C)C,5
3,CC1CC(C)C(C)C(C)C1 (centres undefined),5
4,CC1(C)COB(OCC(C)(C)COB2OCC(C)(C)CO2)OC1,5
5,CC(C)CCOC(=O)C=Cc1ccccc1,5
6,COC(=O)c1nc(Cl)c(Cl)nc1N,5
7,NC(=O)Oc1ccc(Cl)cc1C(=O)Oc1ccc(Cl)cc1Cl,5
8,COc1ccc([C@@H]2CC(=O)c3c(O)cc(O[C@@H]4O[C@H](CO[C@@H]5O[C@@H](C)[C@H](O)[C@@H](O)[C@H]5O)[C@@H](O)[C@H](O)[C@H]4O)cc3O2)cc1O,5
9,CCN1C(=CC=CC=Cc2sc3ccccc3[n+]2CC)Sc2ccccc21,3
10,COC1(C)CCCCCCCCCCC1,5
11,O=C(O)c1ccccc1C(=O)c1ccc(-c2ccccc2)cc1,5
12,CC(=O)N1CCSC1C(=O)Oc1c(C)ncc(CO)c1CO (centres undefined),5
13,Cc1ccc(C(=O)c2ccc(CC(=O)NCC(=O)Nc3cccc(Cl)c3)n2C)cc1,4
14,COc1cc(OC)nc(N=C(O)NS(=O)(=O)N(C)S(C)(=O)=O)n1,5
15,CCC(C(=O)NC(=O)NC(C)=O)c1ccccc1 (centres undefined),5
16,O=S(=O)(O)CC(O)CNC1CCCCC1 (centres undefined),5
17,CCCC(=O)OC,5
18,CCCCCCCCC(=O)O,5
19,O=c1cc[nH]c(=O)[nH]1,5
20,CCCCCCCCCCCCC1=C(OC(C)=O)C(=O)c2ccccc2C1=O,5
21,CC(=O)C1(Cl)CC1,4
22,C=CC(C)=CCC1OC1(C)C (centres undefined),5
23,COc1cc(C)c(C(=O)c2c(OC)ccc(Br)c2C)c(OC)c1OC,5
24,O=S(=O)(NCl)c1ccccc1,4

row,SMILES,GHS category
1,CN1CC(c2ccn(C)n2)CC2c3cccc4[nH]cc(c34)CC21 (centres undefined),4
2,CCOS(=O)(=O)c1cc(C(C)(C)C)cc2cc(C(C)(C)C)ccc12,5
3,O=C(O)CCCCCCCC(=O)O,5
4,CN(CCNCc1cc(C(C)(C)C)cc(Br)c1O)CCNC(=O)c1nc(Cl)c(N)nc1N,4
5,CON=CC1=CCCN(C(=O)Oc2ccc(C(C)C)cc2)C1,4
6,C=CC=CC=CC=CC=CC=CC=CC,5
7,C[Si](Cl)(Cl)c1ccccc1,3
8,COC(=O)N(OC)c1ccccc1COc1ccn(-c2ccc(Cl)cc2)n1,5
9,CCOCC1COC(Cn2cncn2)(c2cc3cc(Cl)cc(Cl)c3o2)O1 (centres undefined),4
10,CC/C=C/C=C\CCCCCCCCOC(C)=O,4
11,CC(C)CCCC(C)CCO (centres undefined),5
12,CSc1nnc(C(C)(C)C)c(=O)n1/N=C/C(C)C,5
13,C=C[C@](C)(O)CC[C@@H]1[C@@]2(C)CCCC(C)(C)[C@@H]2CC[C@@]1(C)O,5
14,O=S(=O)(O)OC1C(OS(=O)(=O)O)C(OS(=O)(=O)O)C(OS(=O)(=O)O)C(OS(=O)(=O)O)C1OS(=O)(=O)O (centres undefined),5
15,CCSCCCSc1nnnn1C,4
16,O=c1ccc2cccnc2n1-c1cccc(C(F)(F)F)c1,3
17,Nc1ncnc2c1ncn2[C@@H]1O[C@H](COP(=O)(O)OP(=O)(O)OP(=O)(O)O)[C@@H](O)[C@H]1O,5
18,CC1Oc2cc(C(=O)C=Cc3ccc(Cl)cc3)ccc2N(C)C1=O (centres undefined),5
19,CC(C)OC(=O)CCCCCCCCC(=O)OC(C)C,5
20,CCCCCCCCC(C)C=O (centres undefined),5
21,CC(C)c1ccc(C(C)C)cc1,5
22,Cc1[nH]nc(C(=O)Nc2cccc(C(F)(F)F)c2)c1Br,5
23,O=C(Nc1ccc(Cl)c(Cl)c1)c1cc(Cl)cc(-c2ccccc2)c1O,4
